Assay results: ChEMBL document CHEMBL1909046, “DrugMatrix in vitro pharmacology data”

Tests used:
[1] = DRUGMATRIX: Tumor Necrosis Factor (TNF), Non-Selective radioligand binding (ligand: [125I] TNF-alpha); type: cell membranes, Membrane; settings: u-937; Not Active = under 50% inhibition at 10 µM
[2] = target: Melanocortin receptor 5 (Homo sapiens, UniProt P33032); type: cell membranes, HEK293, Membrane; settings: hek293; note: in other assays of this panel Not Active means under 50% inhibition at 10 µM
Chain of Melanocortin receptor 5 (P33032 whole entry): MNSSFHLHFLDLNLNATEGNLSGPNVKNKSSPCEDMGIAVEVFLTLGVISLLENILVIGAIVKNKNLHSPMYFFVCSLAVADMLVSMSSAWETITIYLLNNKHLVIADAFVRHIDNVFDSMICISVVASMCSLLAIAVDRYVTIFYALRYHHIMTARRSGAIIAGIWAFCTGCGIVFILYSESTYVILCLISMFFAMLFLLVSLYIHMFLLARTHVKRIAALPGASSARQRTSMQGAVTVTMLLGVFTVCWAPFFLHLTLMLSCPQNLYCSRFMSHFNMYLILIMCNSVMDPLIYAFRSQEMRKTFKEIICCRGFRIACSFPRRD

[3] = target: Acetylcholinesterase (Homo sapiens, UniProt P22303); assay: DRUGMATRIX: Acetylcholinesterase enzyme inhibition (substrate: acetylthiocholine); type: cell-based, HEK293; settings: hek293; Not Active = under 50% inhibition at 10 µM
Chain of Acetylcholinesterase (P22303 whole entry): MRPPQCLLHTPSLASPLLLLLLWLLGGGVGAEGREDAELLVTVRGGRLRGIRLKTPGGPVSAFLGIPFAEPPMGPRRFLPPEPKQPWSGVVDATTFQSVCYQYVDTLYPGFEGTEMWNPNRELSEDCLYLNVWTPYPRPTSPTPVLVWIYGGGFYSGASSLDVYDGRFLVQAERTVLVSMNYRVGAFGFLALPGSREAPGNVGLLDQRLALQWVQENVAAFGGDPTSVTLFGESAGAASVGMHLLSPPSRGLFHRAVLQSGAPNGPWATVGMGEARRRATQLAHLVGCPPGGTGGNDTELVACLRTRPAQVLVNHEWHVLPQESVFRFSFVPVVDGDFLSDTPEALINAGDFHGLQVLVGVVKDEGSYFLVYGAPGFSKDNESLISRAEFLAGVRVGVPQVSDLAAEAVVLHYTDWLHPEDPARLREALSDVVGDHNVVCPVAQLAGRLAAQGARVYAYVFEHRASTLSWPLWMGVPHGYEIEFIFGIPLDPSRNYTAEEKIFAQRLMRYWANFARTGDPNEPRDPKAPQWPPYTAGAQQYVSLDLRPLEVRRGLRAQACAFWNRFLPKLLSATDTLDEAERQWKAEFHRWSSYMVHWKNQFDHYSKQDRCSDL

[4] = DRUGMATRIX: Serotonin (5-Hydroxytryptamine) 5-HT3 radioligand binding (ligand: [3H] GR-65630); type: cell membranes, Membrane; settings: hek293; Not Active = under 50% inhibition at 10 µM
[5] = DRUGMATRIX: ATPase, Na+/K+ enzyme inhibition (substrate: ATP); type: tissue-based, Sus scrofa, Heart; settings: Not Active = under 50% inhibition at 10 µM
[6] = target: Mitogen-activated protein kinase 1 (Homo sapiens, UniProt P28482); assay: DRUGMATRIX: Protein Serine/Threonine Kinase, ERK2 enzyme inhibition (substrate: Myelin Basic Protein); parameters: species or system Escherichia coli; settings: Not Active = under 50% inhibition at 10 µM
Chain of Mitogen-activated protein kinase 1 (P28482 whole entry): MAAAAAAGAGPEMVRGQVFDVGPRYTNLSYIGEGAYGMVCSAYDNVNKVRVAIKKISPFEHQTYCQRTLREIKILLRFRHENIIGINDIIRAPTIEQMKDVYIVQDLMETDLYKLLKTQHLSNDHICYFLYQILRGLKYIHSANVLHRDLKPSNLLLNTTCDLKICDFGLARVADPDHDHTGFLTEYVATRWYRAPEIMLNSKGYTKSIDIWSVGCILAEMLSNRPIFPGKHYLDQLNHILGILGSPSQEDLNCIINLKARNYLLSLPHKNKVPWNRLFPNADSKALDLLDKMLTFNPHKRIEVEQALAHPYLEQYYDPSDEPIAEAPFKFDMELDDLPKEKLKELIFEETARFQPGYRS

C1CCN2C[C@@H]3C[C@@H](CN4CCCC[C@@H]34)[C@H]2C1 [SPARTEINE]
Not Active: IC50 [1] | Ki [1] | IC50 [2] | IC50 [3] | IC50 [4] | Ki [4] | IC50 [5] | Ki [5] | IC50 [6]

LEAD(IV) ACETATE
Not Active: IC50 [1] | Ki [1] | IC50 [2] | Ki [2] | IC50 [3] | Ki [3] | IC50 [4] | Ki [4] | IC50 [5] | Ki [5] | IC50 [6] | Ki [6]

CC(O)C(=O)O (stereo not given) [LACTIC ACID]
Not Active: IC50 [1] | Ki [1] | IC50 [2] | IC50 [3] | IC50 [4] | Ki [4] | IC50 [5] | Ki [5] | IC50 [6]
